# Measurements: patent US9586907B2, “Isothiocyanate compounds, pharmaceutical compositions, and uses thereof” (priority 2006, dated 2017)
# Like-named read-outs stand apart in the source and are kept apart here.
# Tests used:
# [1] = test system: clinical isolates of bacteria and fungus (including yeasts); test: General antimicrobial activity, semi-quantitative score on collection of clinical isolates; assay type: cell-based; details: for antimicrobial / growth-inhibitory activity (in words): Table 1 screen; as to General antimicrobial activity: key: −: indicating no activity; +++++: indicating highest activity
# Method: The growth inhibitory effect of a number of various ITC compounds were tested on large collection of clinical isolates of bacteria and fungus (including yeasts), in order to establish a systematic structure-activity relationship for the ITC compounds. […] To assess the average activity for an individual ITC compound, the semi-quantitative score was calculated for each compound based on the number of sensitive bacterial strains at concentrations of 100 and 200 μM.
# [2] = test system: Candida albicans 5108^mdr; test: Anti-fungal MIC, Candida albicans 5108^mdr; details: Candida albicans, read-out: Anti-Fungal Activity (MIC)
# Candida albicans 90028 = test: Anti-fungal MIC, Candida albicans 90028; details: Candida albicans, 90028, read-out: Anti-Fungal Activity (MIC)
# Candida crusei 6258^mdr = test: microbe, parasite or virus in culture; details: read-out: Anti-Fungal Activity (MIC)
# [3] = test system: Candida parapsilosis 22019; test: Anti-fungal MIC, Candida parapsilosis 22019; details: 22019, read-out: Anti-Fungal Activity (MIC)
# [4] = test system: Aspergillus fumigatus Rit 11; test: Anti-fungal MIC, Aspergillus fumigatus Rit 11; details: Aspergillus fumigatus, RIT11, read-out: Anti-Fungal Activity (MIC)
# [5] = test system: Aspergillus fumigatus Rit 1; test: Anti-fungal MIC, Aspergillus fumigatus Rit 1; details: Aspergillus fumigatus, RIT1, read-out: Anti-Fungal Activity (MIC)
# Candida albicans 90030 = test: Anti-fungal MIC, Candida albicans 90030; details: Candida albicans, 90030, read-out: Anti-Fungal Activity (MIC)
# Candida dlabrata 250^mdr = test: Anti-fungal MIC, Candida dlabrata 250^mdr; details: Candida, read-out: Anti-Fungal Activity (MIC)
# [6] = test system: Cryptococcus neoformans CNH99; test: Anti-fungal MIC, Cryptococcus neoformans CNH99; details: Cryptococcus neoformans, CNH99, read-out: Anti-Fungal Activity (MIC)
# [7] = test system: Aspergillus fumigatus Rit 21; test: Anti-fungal MIC, Aspergillus fumigatus Rit 21; details: Aspergillus fumigatus, RIT21, read-out: Anti-Fungal Activity (MIC)
# M. avium = test: MIC, M. avium; assay type: cell-based
# M. tuberculosis CDC1551 = test: MIC, M. tuberculosis CDC1551; assay type: cell-based
# Method: (§1) Next, several of the bifunctional ITC compounds were tested for their ability to inhibit the growth of some clinical isolates of Mycobacteria, the results of which are summarized in Table 3 below.
# M. tuberculosis H37Rv = test: MIC, M. tuberculosis H37Rv; assay type: cell-based
# Method: as §1
# M. tuberculosis P = test: MIC, M. tuberculosis P; assay type: cell-based
# Method: as §1
# M. scrofulaceum = test: MIC, M. scrofulaceum; assay type: cell-based
# M. tuberculosis 210 = test: MIC, M. tuberculosis 210; assay type: cell-based
# Method: as §1
# M. intracellularie = test: MIC, M. intracellularie; assay type: cell-based
# M. tuberculosis W4 = test: MIC, M. tuberculosis W4; assay type: cell-based
# Method: as §1
# M. tuberculosis AB = test: MIC, M. tuberculosis AB; assay type: cell-based
# Method: as §1
# M. fortuitum = test: MIC, M. fortuitum; assay type: cell-based
# M. tuberculosis W = test: MIC, M. tuberculosis W; assay type: cell-based
# Method: as §1
# M. bovis BCG = test: microbe, parasite or virus in culture; assay type: cell-based
# M. cansassi = test: MIC, M. cansassi; assay type: cell-based
# [8] = test system: Klebsiella pneumonii BK12261; test: MIC, Klebsiella pneumonii BK12261; details: Klebsiella pneumonii BK12261; Gram −; 24 hours of incubation
# Shigella sp., BK 12440 = test: MIC, Shigella sp., BK 12440; assay type: cell-based; details: Gram −, 24 hours of incubation
# [9] = test system: MRSA (Staphylococcus aureus) BK12064; test: MIC, MRSA BK12064; details: MRSA BK12064; Gram +; 24 hours of incubation
# [10] = test system: Acinetobacter sp., BK12787; test: MIC, Acinetobacter sp., BK12787; details: Acinetobacter sp., BK12787; Gram −; 24 hours of incubation
# Shigella sp., BK 12441 = test: MIC, Shigella sp., BK 12441; assay type: cell-based; details: Gram −, 24 hours of incubation
# [11] = test system: Acinetobacter sp., BK12786; test: MIC, Acinetobacter sp., BK12786; details: Acinetobacter sp., BK12786; Gram −; 24 hours of incubation
# [12] = test system: Klebsiella pneumonii BK12260; test: MIC, Klebsiella pneumonii BK12260; details: Klebsiella pneumonii BK12260; Gram −; 24 hours of incubation
# Escherichia coli BK12336 = test: MIC, Escherichia coli BK12336; details: Escherichia coli BK12336; Gram −; 24 hours of incubation
# Escherichia coli K12 = test: MIC, Escherichia coli K12; details: Escherichia coli K12; Gram −; 24 hours of incubation
# Bacillus cereus 4342 = test: MIC, Bacillus cereus 4342; details: Bacillus cereus 4342; Gram +; 24 hours of incubation
# [13] = test system: Serattia marcescens BK12426; test: MIC, Serattia marcescens BK12426; details: Serattia marcescens BK12426; Gram −; 24 hours of incubation
# [14] = test system: Enterobacter cloacii BK12315; test: MIC, Enterobacter cloacii BK12315; details: Enterobacter cloacii BK12315; Gram −; 24 hours of incubation
# [15] = test system: Bacillus subtilis BK11590; test: MIC, Bacillus subtilis BK11590; assay type: cell-based; details: Gram +, 24 hours of incubation
# [16] = test system: Pseudomonas aeruginosa BK12347; test: MIC, Pseudomonas aeruginosa BK12347; details: Pseudomonas aeruginosa BK12347; Gram −; 24 hours of incubation
# [17] = test system: Serattia marcescens BK12421; test: MIC, Serattia marcescens BK12421; details: Serattia marcescens BK12421; Gram −; 24 hours of incubation
# [18] = test system: Enterococcus sp., BK11936; test: MIC, Enterococcus sp., BK11936; details: Enterococcus sp., BK11936; Gram +; 24 hours of incubation
# [19] = test system: Enterococcus sp., BK11940; test: MIC, Enterococcus sp., BK11940; details: Enterococcus sp., BK11940; Gram +; 24 hours of incubation
# [20] = test system: Pseudomonas aeruginosa BK12348; test: MIC, Pseudomonas aeruginosa BK12348; details: Pseudomonas aeruginosa BK12348; Gram −; 24 hours of incubation
# [21] = test system: MRSA (Staphylococcus aureus) BK12060; test: MIC, MRSA BK12060; details: MRSA BK12060; Gram +; 24 hours of incubation
# [22] = test system: Staphylococcus epidermidis BK12799; test: MIC, Staphylococcus epidermidis BK12799; details: Staphylococcus epidermidis BK12799; Gram +; 24 hours of incubation
# [23] = test system: Enterobacter cloacii BK12313; test: MIC, Enterobacter cloacii BK12313; details: Enterobacter cloacii BK12313; Gram −; 24 hours of incubation
# [24] = test system: Staphylococcus epidermidis BK12798; test: MIC, Staphylococcus epidermidis BK12798; details: Staphylococcus epidermidis BK12798; Gram +; 24 hours of incubation
# [25] = Mycobacterium tuberculosis, read-out: MIC
structure (smiles),measurement,setting,value
"CN=C=S [Compound 8, CH3—N═C═S, reference compound]",antimicrobial / growth-inhibitory activity (in words),[1],very little activity
"OC(Cn1cncn1)(Cn1cncn1)c1ccc(F)cc1F [Fluc, Fluconazol, reference compound]",MIC,[2],32 mg/L
same,MIC,Candida albicans 90028,0.25 mg/L
same,MIC,Candida crusei 6258^mdr,32 mg/L
same,MIC,[3],2 mg/L
same,MIC,[4],> 64 mg/L
same,MIC,[5],> 64 mg/L
same,MIC,Candida albicans 90030,4 mg/L
same,MIC,Candida dlabrata 250^mdr,> 64 mg/L
same,MIC,[6],4 mg/L
same,MIC,[7],> 64 mg/L
"S=C=NCCCCCCN=C=S [Compound 40, S═C═N—(CH2)6—N═C═S]",MIC,M. avium; M. avium,32 mg/L
same,MIC,M. tuberculosis CDC1551,4 mg/L
same,MIC,M. tuberculosis H37Rv,2 mg/L
same,MIC,M. tuberculosis P,2 mg/L
same,MIC,M. scrofulaceum; M. scrofulaceum,32 mg/L
same,MIC,M. tuberculosis 210,2 mg/L
same,MIC,M. intracellularie; M. intracellularie,32 mg/L
same,MIC,M. tuberculosis W4,2 mg/L
same,MIC,M. tuberculosis AB,4 mg/L
same,MIC,M. fortuitum; M. fortuitum,16 mg/L
same,MIC,M. tuberculosis W,0.5 mg/L
same,MIC,M. bovis BCG,2 mg/L
same,MIC,M. cansassi; M. cansassi,8 mg/L
"CCCCN=C=S [Compound 7, CH3CH2CH2CH2—N═C═S, reference compound]",antimicrobial / growth-inhibitory activity (in words),[1],very little activity
"O=C(O)c1cc(N=C=S)ccc1-c1c2ccc(O)cc2cc2cc(O)ccc12 [Compound 14, reference compound]",antimicrobial / growth-inhibitory activity (in words),[1],poor growth-inhibitory activity
"O=C=NCc1ccccc1 [Compound 23, reference compound]",antimicrobial / growth-inhibitory activity (in words),[1],Neither of the chemically related derivatives—isocyanate (Compound 23) or thiocyanate (Compound 25)—displayed any activity
same,General antimicrobial activity,"[1]; semi-quantitative score from number of sensitive bacterial strains at 100 and 200 μM, deduced from number of sensitive bacterial species and average MIC",−
"OCCCCCCCN=C=S [Compound 44, HO—(CH2)7—N═C═S]",MIC,[8],>64 mg/L
same,MIC,"Shigella sp., BK 12440",64 mg/L
same,MIC,[9],16 mg/L
same,MIC,[10],64 mg/L
same,MIC,"Shigella sp., BK 12441",64 mg/L
same,MIC,[11],64 mg/L
same,MIC,[12],>64 mg/L
same,MIC,Escherichia coli BK12336,>64 mg/L
same,MIC,Escherichia coli K12,>64 mg/L
same,MIC,Bacillus cereus 4342,8 mg/L
same,MIC,[13],>64 mg/L
same,MIC,[14],>64 mg/L
same,MIC,[15],4 mg/L
same,MIC,[16],>64 mg/L
same,MIC,[17],>64 mg/L
same,MIC,[18],32 mg/L
same,MIC,[19],32 mg/L
same,MIC,[20],>64 mg/L
same,MIC,[21],8 mg/L
same,MIC,[22],8 mg/L
same,MIC,[23],>64 mg/L
same,MIC,[24],8 mg/L
S=C=NCC12CC3CC(CC(C3)C1)C2 [Compound 35],antimicrobial / growth-inhibitory activity (in words),[1],poor growth-inhibitory activity
"C=CCN=C=S [Compound 22, CH2═CH2CH2—N═C═S, reference compound]",antimicrobial / growth-inhibitory activity (in words),[1],very little activity
"CO[C@H]1/C=C/O[C@@]2(C)Oc3c(C)c(O)c4c(O)c(c(/C=N/N5CCN(C)CC5)c(O)c4c3C2=O)NC(=O)/C(C)=C\C=C\[C@H](C)[C@H](O)[C@@H](C)[C@@H](O)[C@@H](C)[C@H](OC(C)=O)[C@@H]1C [Rif, Rifampicin, reference compound]",MIC,M. avium; Mycobacterium avium,0.5 mg/L
same,MIC,M. tuberculosis CDC1551; [25],0.5 mg/L
same,MIC,M. tuberculosis H37Rv; [25],0.5 mg/L
same,MIC,M. tuberculosis P; [25],> 4 mg/L
same,MIC,M. scrofulaceum; Mycobacterium scrofulaceum,0.5 mg/L
same,MIC,M. tuberculosis 210; [25],0.5 mg/L
same,MIC,M. intracellularie,0.5 mg/L
same,MIC,M. tuberculosis W4; [25],0.5 mg/L
same,MIC,M. tuberculosis AB; [25],0.5 mg/L
same,MIC,M. fortuitum; Mycolicibacterium fortuitum,> 4 mg/L
same,MIC,M. tuberculosis W; [25],> 4 mg/L
same,MIC,"M. bovis BCG; Mycobacterium tuberculosis variant bovis BCG, BCG",0.5 mg/L
same,MIC,M. cansassi,0.5 mg/L
